Experimental data published in patent publication US20240358693A1, “METHODS OF TREATING PAIN” (Aisa Pharma, Inc., priority 2023, published 2024).

Test system: participants with SSc-RP
Assay: Scleroderma Health Assessment Questionnaire (SHAQ): disability indices and visual analog scales
Format: in vivo, human
Settings: for SHAQ Visual Analogue Scale - Overall Disease Severity, Median / SHAQ Visual Analogue Scale - Pain, Mean / SHAQ Visual Analogue Scale - Pain, Median / SHAQ Visual Analogue Scale - Raynaud's, Mean / SHAQ Visual Analogue Scale - Raynaud's, Median / SHAQ Visual Analogue Scale - Breathing Problems, Mean / SHAQ Visual Analogue Scale - Breathing Problems, Median / SHAQ Visual Analogue Scale - Finger Ulcers, Mean / SHAQ Visual Analogue Scale - Finger Ulcers, Median / SHAQ Visual Analogue Scale - Intestinal Problems, Mean / SHAQ Visual Analogue Scale - Intestinal Problems, Median / SHAQ Visual Analogue Scale - Overall Disease Severity, Mean: In-Clinic Visit (Day 12), PP Population Part A
Description: The standard, validated, patient reported outcome measures tool for SSc patients, the Scleroderma Health Assessment Questionnaire (SHAQ), will be used to assess the participant qualify of life. Details are attached in the Appendix. The participant quality of life will be scored, and a disability index calculated for each questionnaire completed by the patient at Screening and each in-clinic visit. The absolute change in participant quality of life from baseline to the end of each dosing period will be calculated similar to frequency data as before.
The SHAQ includes a Raynaud's VAS, which will be reported at screening and each in-clinic visit. The absolute change in Raynaud-VAS, assessed by the participants response to the SHAQ question ‘In the past 7 days, how much have your Raynaud's interfered with your daily activities?’ at baseline and the end of each dosing period will be calculated similar to frequency data as before.
The SHAQ is used to calculate a Disability Index to assess the participant qualify of life. The eight categories assessed by the Disability Index are 1) dressing and grooming, 2) arising, 3) eating, 4) walking, 5) hygiene, 6) reach, 7) grip, and 8) common daily activities. For each of these categories, patients report the amount of difficulty they have in performing two or three specific activities.
There are four possible responses for the Disability Index questions: • Without any difficulty=0 • With some difficulty=1 • With much difficulty=2 • Unable to do=3. • The highest score reported by the patient for any component question of the eight categories determines the score for that category. • If a component question is left blank or the response is too ambiguous to assign a score, then the score for that category is determined by the remaining completed question(s). • If all component questions are blank or if more than one answer is given, then follow up with the respondent is required. • If the respondent's mark is between the response columns, then move it to the closest one. If it's directly between the two, move it to the higher one.
Each of the disability items on the SHAQ has a companion aids/devices variable that is used to record what type(s) of assistance, if any, the participant uses for his/her usual activities. These variables (see below) are coded as follows: • 0=No assistance is needed. • 1=A special device is used by the patient in his/her usual activities. • 2=The patient usually needs help from another person. • 3=The patient usually needs BOTH a special device AND help from another person.
The scoring variables and scoring rules permit the computation of two disability indices, the Standard Disability Index and the Alternative Disability Index.
This question results in a new set of category scores that are computed by adjusting the score for each category, if necessary, based on the patient's use of an aid or device or assistance for that category. If either devices and/or help from another person are checked for a category, the score is set to “2”, unless the score is already “3” (i.e., scores of “0” or “1” are increased to “2”). For example, if the highest score for the dressing category is “1”, and the patient says they use a device for dressing, the computed category score would be “2”. The sum of the computed categories scores is then calculated and divided by the number of categories answered. This gives a score in the 0 to 3 range.
The aid and device variables are not used to calculate the alternative disability index; it is calculated by adding the scores for each of the categories and dividing by the number of categories answered. This gives a score in the 0 to 3 range.
The standard, validated, patient reported outcome measures tool for SSc patients, the SHAQ, was collected at the time points specified in the study schedules (FIG. 2 and FIGS. 4A and 4B) to assess the participant's quality of life. The SHAQ included a Raynaud's VAS that will also be reported separately.

[1] = Pooled Cilnidipine 10 mg and Cilnidipine 10 mg + Tadalafil 5 mg (N = 9)
[2] = Pooled Cilnidipine 10 mg and Cilnidipine 10 mg + Tadalafil 5 mg (N = 9), Subject 01-110 score excluded
[3] = Pooled Cilnidipine 20 mg and Cilnidipine 20 mg + Tadalafil 5 mg (N = 8)
[4] = Modified ITT, Part A, dose Cilnidipine 10 mg, Tadalafil 5 mg, or 10 mg + 5 mg
[5] = Modified ITT, Part A, dose Cilnidipine 20 mg, or 20 mg + Tadalafil 5 mg

In the case of `COCCOC(=O)C1=C(C)NC(C)=C(C(=O)OC/C=C/c2ccccc2)C1c1cccc([N+](=O)[O-])c1` (stereo not shown) [Cilnidipine, cilnidipine], the “SHAQ Visual Analogue Scale - Overall Disease Severity, Median” value [1] is reported as 1.900, the “SHAQ Visual Analogue Scale - Pain, Mean” value [1] is reported as 2.644 and the “SHAQ Visual Analogue Scale - Pain, Median” value [1] is reported as 2.900. The “SHAQ Visual Analogue Scale - Raynaud's, Mean” value [1] was 2.319, the “SHAQ Visual Analogue Scale - Raynaud's, Median” value [1] was 2.600 and the “SHAQ Visual Analogue Scale - Breathing Problems, Mean” value [2] was 1.375. For the same molecule, the “SHAQ Visual Analogue Scale - Breathing Problems, Median” value [2] was 0.000, the “SHAQ Visual Analogue Scale - Breathing Problems, Mean” value [3] was 1.400 and the “SHAQ Visual Analogue Scale - Breathing Problems, Median” value [3] was 0.450. For the same molecule, the “SHAQ Visual Analogue Scale - Finger Ulcers, Mean” value [3] was 1.171, the “SHAQ Visual Analogue Scale - Finger Ulcers, Median” value [3] was 0.000 and the “SHAQ Visual Analogue Scale - Intestinal Problems, Mean” value [3] was 1.013. The “SHAQ Visual Analogue Scale - Intestinal Problems, Median” value [3] was 0.100, the “SHAQ Visual Analogue Scale - Overall Disease Severity, Mean” value [3] was 1.938 and the “SHAQ Visual Analogue Scale - Overall Disease Severity, Median” value [3] was 1.300. For the same molecule, the “SHAQ Visual Analogue Scale - Pain, Mean” value [3] was 2.288, the “SHAQ Visual Analogue Scale - Pain, Median” value [3] was 2.100 and the “SHAQ Visual Analogue Scale - Raynaud's, Mean” value [3] was 1.688. The “SHAQ Visual Analogue Scale - Raynaud's, Median” value [3] was 0.850, the “SHAQ Visual Analogue Scale - Breathing Problems, Mean” value (Pooled Cilnidipine (N = 8)) was 1.213 and the “SHAQ Visual Analogue Scale - Breathing Problems, Median” value (Pooled Cilnidipine (N = 8)) was 0.200. For the same molecule, the “SHAQ Visual Analogue Scale - Finger Ulcers, Mean” value (Pooled Cilnidipine (N = 8)) was 0.463, the “SHAQ Visual Analogue Scale - Finger Ulcers, Median” value (Pooled Cilnidipine (N = 8)) was 0.000 and the “SHAQ Visual Analogue Scale - Intestinal Problems, Mean” value (Pooled Cilnidipine (N = 8)) was 0.975. For the same molecule, the “SHAQ Visual Analogue Scale - Intestinal Problems, Median” value (Pooled Cilnidipine (N = 8)) was 0.300, the “SHAQ Visual Analogue Scale - Overall Disease Severity, Mean” value (Pooled Cilnidipine (N = 8)) was 1.475 and the “SHAQ Visual Analogue Scale - Overall Disease Severity, Median” value (Pooled Cilnidipine (N = 8)) was 1.300. For the same molecule, the “SHAQ Visual Analogue Scale - Pain, Mean” value (Pooled Cilnidipine (N = 8)) was 1.875, the “SHAQ Visual Analogue Scale - Pain, Median” value (Pooled Cilnidipine (N = 8)) was 1.550 and the “SHAQ Visual Analogue Scale - Raynaud's, Mean” value (Pooled Cilnidipine (N = 8)) was 1.900. For the same molecule, the “SHAQ Visual Analogue Scale - Raynaud's, Median” value (Pooled Cilnidipine (N = 8)) was 1.250, the “SHAQ Finger Ulcers, Baseline, Mean” value [4] was 0.700 and the “SHAQ Finger Ulcers, Baseline, Median” value [4] was 0.500. For the same molecule, the “SHAQ Finger Ulcers, In Clinic Visit (Day 12), Mean” value [4] was 0.275, the “SHAQ Finger Ulcers, In Clinic Visit (Day 12), Median” value [4] was 0.000 and the “SHAQ Standard disability index, Baseline, Mean” value [4] was 0.656. The “SHAQ Standard disability index, Baseline, Median” value [4] was 0.563, the “SHAQ Standard disability index, In Clinic Visit (Day 12), Mean” value [4] was 0.656 and the “SHAQ Standard disability index, In Clinic Visit (Day 12), Median” value [4] was 0.563. For the same molecule, the “SHAQ Visual Analog Scale-Breathing Problems, Baseline, Mean” value [4] was 1.875, the “SHAQ Visual Analog Scale-Breathing Problems, Baseline, Median” value [4] was 0.000 and the “SHAQ Visual Analog Scale-Breathing Problems, In Clinic Visit (Day 12), Mean” value [4] was 1.575. The “SHAQ Visual Analog Scale-Breathing Problems, In Clinic Visit (Day 12), Median” value [4] was 0.000, the “SHAQ Visual Analog Scale-Intestinal Problems, Baseline, Mean” value [4] was 2.975 and the “SHAQ Visual Analog Scale-Intestinal Problems, Baseline, Median” value [4] was 2.550. For the same molecule, the “SHAQ Visual Analog Scale-Intestinal Problems, In Clinic Visit (Day 12), Mean” value [4] was 1.100, the “SHAQ Visual Analog Scale-Intestinal Problems, In Clinic Visit (Day 12), Median” value [4] was 0.300 and the “SHAQ Visual Analog Scale-Pain, Baseline, Mean” value [4] was 1.975. For the same molecule, the “SHAQ Visual Analog Scale-Pain, Baseline, Median” value [4] was 2.150, the “SHAQ Visual Analog Scale-Pain, In Clinic Visit (Day 12), Mean” value [4] was 1.875 and the “SHAQ Visual Analog Scale-Pain, In Clinic Visit (Day 12), Median” value [4] was 1.950. For the same molecule, the “SHAQ Visual Analog Scale-Raynaud's, Baseline, Mean” value [4] was 1.600, the “SHAQ Visual Analog Scale-Raynaud's, Baseline, Median” value [4] was 1.000 and the “SHAQ Visual Analog Scale-Raynaud's, In Clinic Visit (Day 12), Mean” value [4] was 1.925. The “SHAQ Visual Analog Scale-Raynaud's, In Clinic Visit (Day 12), Median” value [4] was 1.700, the “SHAQ alternative disability index, Baseline, Mean” value [4] was 0.500 and the “SHAQ alternative disability index, Baseline, Median” value [4] was 0.438. For the same molecule, the “SHAQ alternative disability index, In Clinic Visit (Day 12), Mean” value [4] was 0.563, the “SHAQ alternative disability index, In Clinic Visit (Day 12), Median” value [4] was 0.500 and the “SHAQ Finger Ulcers, Baseline, Mean” value [5] was 1.800. For the same molecule, the “SHAQ Finger Ulcers, Baseline, Median” value [5] was 0.300.
